A word on the melting point: it is the temperature, or range, at which the solid turns liquid.

Structures can show the parent of a compound that is named as a salt. Some results are limits rather than exact numbers.

As for `CS(=O)(=O)N1CCN(C(=O)Cc2c[nH]c3ccccc23)C(CN2CCCC2)C1` (racemic) (as salt: hydrochloride) [(R,S-8e), (R,S)-4-Methanesulfonyl-1-[(3-indolylacetyl-2-[(1-pyrrolidinyl)-methyl]piperazine hydrochloride], the melting point was in the range of 219 to 221 °C. For `CN(C(=O)C(c1ccccc1)c1ccccc1)C1CCCCC1N1CCCC1` (racemic) (as salt: HCl) [Example 5s, (±)-trans-N-Methyl-N-[2-(1-pyrrolidinyl)cyclohexyl]2,2-dphenylacetamide Hydrochloride] the value was 295 to 297 °C (dec.); for `COc1cc(CC(=O)N(C)[C@H](CN2CCCC2)c2ccccc2)c(S(=O)(=O)N2CCCC2)cc1OC` (as salt: HCl) [Example 134, 2-[2-(N-Pyrrolidinesulfamoyl)-4,5-dimethoxyphenyl]-N-methyl-N-[(1S)-1-phenyl-2-[(1-pyrrolidinyl)ethyl]]acetamide], 240 to 242 °C; for `CC(C)C(=O)Nc1cccc([C@@H](CN2CCCC2)N(C)C(=O)Cc2ccccc2NC(=O)C(C)C)c1` (as salt: sulfonic acid salt) [Example 3qq, 2-(2-Iso-butyramidophenyl)-N-methyl-N-[(1S)-1-(3-isobutyramido-phenyl)-2-(1-pyrrolidinyl)ethyl]acetamide Methanesulfonic acid salt], 143 to 145 °C. Compound `CN(C(=O)Cc1ccccc1NS(C)(=O)=O)[C@H](CN1CC[C@H](O)C1)c1ccccc1` (as salt: HCl) [Example 125, 2-(2-N-Methylsulfonamido-2-aminophenyl)-N-methyl-N-[(1S)-1-phenyl-2-[1-(3S)-(3-hydroxypyrrolidinyl)ethyl]]acetamide] returned a melting point of 168 to 171 °C. As to `COc1cc(CC(=O)N(C)[C@H](CN2CCCC2)c2ccccc2)c(S(=O)(=O)N(C)CC(=O)O)cc1OC` (as salt: HCl) [Example 142, N-Methyl-[[2-(N-sulfamoyl)-4,5-dimethoxyphenyl]-N-methyl-N-[(1S)-1-phenyl-2-[1-(pyrrolidinyl)ethyl]]acetamido]glycine], the melting point was 231 to 233 °C (dec.). In turn, `COC(=O)CNC(=O)c1ccccc1CC(=O)N(C)[C@H](CN1CCCC1)c1ccccc1` (as salt: hydrochloride) [Example 3mm, Methyl N-[2-(2-pheny)-N-methyl-N-{[1S]-1-phenyl-2-(1-pyrrolidinyl)ethyl}acetamido]2-oxo-glycinate hydrochloride] registered a melting point of 204 to 206 °C. In turn, `COC(=O)N1CCN(C(=O)Cc2ccccc2[N+](=O)[O-])C(CN2CCCC2)C1` (racemic) (as salt: hydrochloride) [(R,S-9d), (R,S)-Methyl 4-[(2-nitrophenyl)acetyl]-3-[(1-Pyrrolidinyl)-methyl]-1-piperazine-carboxylate hydrochloride] yielded a melting point of 228 °C.

`CC(=O)N1CCN(C(=O)Cc2ccc(C(F)(F)F)cc2)C(CN2CCCC2)C1` (racemic) (as salt: hydrochloride) [(R,S-10b)] yielded a melting point of 110 °C. The compound `CN(C(=O)Cc1ccc(O)c(NS(C)(=O)=O)c1)[C@H](CN1CCCC1)c1ccccc1` (as salt: HCl) [Example 124, 2-(3-N-Methylsulfonamido-3-amino-4-hydroxyphenyl)-N-methyl-N-[(1S)-1-phenyl-2-(1-pyrrolidinyl)ethyl]acetamide] yielded a melting point of 228 to 230 °C. As to `COc1cc(CC(=O)N(C)[C@H](CN2CC[C@H](O)C2)c2ccccc2)c(S(=O)(=O)N2CCCC2)cc1OC` (as salt: salt) [Example 135, 2-[2-(N-Pyrrolidinesulfamoyl)-4,5-dimethoxyphenyl]-N-methyl-N-[(1S)-1-phenyl-2-[1-(3S)-(3-hydroxypyrrolidinyl)ethyl]]acetamide], the melting point is > 120 °C (dec.). As for `CN(C(=O)Cc1cc2c(cc1S(=O)(=O)N(C)Cc1ccccc1)OCO2)[C@H](CN1CCCC1)c1ccccc1` (as salt: salt) [Example 131, 2-[2-(N-Benzyl-N-methylsulfamoyl)-4,5-methylenedioxyphenyl]-N-methyl-N-[(1S)-1-phenyl-2-[(1-pyrrolidinyl)ethyl]]acetamide], the melting point was 236 to 238 °C. For `COC(=O)N1CCN(C(=O)Cc2ccccc2OC)C(CN2CCCC2)C1` (racemic) (as salt: hydrochloride) [(R,S-9e)], the melting point was 120 °C. `CCCCOC(=O)Nc1ccc(CC(=O)N(C)[C@H](CN2CCCC2)c2cccc([N+](=O)[O-])c2)cc1` (as salt: HCl): the melting point is 170 °C (dec.).

As to `COC(=O)N1CCN(C(=O)Cc2ccccc2N(S(C)(=O)=O)S(C)(=O)=O)C(CN2CCCC2)C1` (racemic) (as salt: hydrochloride) [Example 1d, Methyl-4-[(2-[N,N-bis-methylsulfonamido]phenyl)acetyl]-3-(R,S)-[(1-pyrrolidinyl)methyl]-1-piperazinecarboxylate hydrochloride], the melting point lay in the range of 145 to 150 °C. For the compound `Cl.NS(=O)(=O)N1CCN(C(=O)Cc2ccc(Cl)c(Cl)c2)[C@H](CN2CCCC2)C1`, the melting point lay within 183 to 185 °C. For the compound `COC(=O)N1CCN(C(=O)Cc2ccccc2N)C(CN2CCCC2)C1` (racemic) (as salt: hydrochloride) [(R,S-9f), (R,S)-Methyl 4-[(2-aminophenyl)acetyl]-3-[(1-pyrrolidinyl)-methyl]-1-piperazine-carboxylate dihydrochloride], the melting point was 195 °C (dec.). To `COc1cc(CC(=O)N(C)[C@H](CN2CC[C@H](O)C2)c2ccccc2)c(S(=O)(=O)N2CCN(C)CC2)cc1OC` (as salt: HCl) [Example 139] belongs 168 to 171 °C; to `CN(C(=O)Cc1ccc(C(F)(F)F)cc1NCC(=O)O)[C@H](CN1CCCC1)c1ccccc1` (as salt: hydrochloride) [Example 3b, N-[(4-Trifluoromethylphenyl)-N-methyl-N-{[1S]-1-phenyl-2-[1-pyrrolidinyl)]ethyl}acetamido]glycine hydrochloride], 228 to 230 °C (dec.); to `CN(C(=O)Cc1ccc(N)cc1)[C@H](CN1CCCC1)c1cccc([N+](=O)[O-])c1` (as salt: HCl), 200 °C (dec.). Turning to `CCOP(=O)(OCC)N1CCN(C(=O)Cc2ccc(Cl)c(Cl)c2)[C@H](CN2CCCC2)C1` (as salt: hydrochloride) [(R-3g), (R)-4-(Diethoxyphosphonate)-1-[(3,4-dichlorophenyl)acetyl]-2-[(1-pyrolidinyl)methyl]-piperazine hydrochloride], the melting point lay in the range of 168 to 170 °C.

`COC(=O)N1CCN(C(=O)Cc2ccc(C(F)(F)F)cc2N(S(C)(=O)=O)S(C)(=O)=O)C(CN2CCCC2)C1` (racemic) (as salt: hydrochloride) [Example 1b, Methyl-4-[(2-[N,N-bis-methylsulfonamido]-4-trifluoromethyphenyl)acetyl]-3-(R,S)-[(1-pyrrolidinyl)-methyl]-1-piperazinecarboxylate dihydrochloride] returned a melting point of 155 to 160 °C. To `CN(C(=O)Cc1ccccc1N)[C@H](CN1CCCC1)c1cccc(N)c1` (as salt: HCl) belongs 219 to 222 °C. On to `CN(C(=O)Cc1ccc(Cl)c(Cl)c1)[C@@H]1c2cc(S(=O)(=O)N(C)Cc3ccccc3)ccc2CC[C@H]1N1CCCC1` (racemic) (as salt: HCl), for which the melting point fell in the range of 251 to 254 °C.

Values taken from patent US20050020576A1, “Kappa agonist compounds and pharmaceutical formulations thereof” (priority 1996, published 2005).
